Results published in PMC9513756, “Establishing a UHPLC-MS/MS method for evaluation of the influence of stir-frying on the pharmacokinetics of seven compounds in Arctii Fructus” (RSC Advances, 2022).
Like-named read-outs stand apart in the source and are kept apart here.

Assay: Pharmacokinetics of seven compounds in rat plasma after oral administration of RAF and SAF extracts (UHPLC-MS/MS)
Format: in vivo, male Sprague-Dawley rats
Details: for AUC(0-inf) / AUC(0-t) / Tmax / half-life / MRT inf: male, Sprague-Dawley, rat, plasma, po, 12 g/kg
[1] = oral RAF extract 12 g kg^−1, n = 6
[2] = oral RAF extract 12 g kg^−1, n = 6, read-out: Mean residence time (MRT(0–∞))
[3] = oral SAF extract 12 g kg^−1, n = 6
[4] = oral SAF extract 12 g kg^−1, n = 6, read-out: Mean residence time (MRT(0–∞))

Procedure: All the components were measured using a Shimadzu UHPLC system (Shimadzu, Japan), and a Triple Quadrupole 5500 LC-MS/MS system (AB Sciex, USA) in negative ion mode. […] The gradient program was: 5–28% B (0–3 min), 28% B (3–3.5 min), 28–38% B (3.5–4 min), 38% B (4–4.5 min), 38–100% B (4.5–6 min), 100–5% B (6–7 min). With a column temperature of 40 °C, the optimized key parameters including curtain gas, collision gas, ion spray voltage, and temperature were assigned values of 55 psi, 35 psi, 4500 V, and 550 °C, respectively.
The rat plasma sample (100 μL), IS (10 μL), and 2 M HCl (20 μL) were mixed and vortex mixed for 3 min. Subsequently, 1 mL of ethyl acetate–butyl alcohol (1 : 1) was spiked into the mixed solution, and then centrifuged for 5 min at 25 000 × g.[14] Next, the supernatant was transferred and evaporated with nitrogen gas. These residues were then re-dissolved in 100 μL of 60% methanol, with the final solutions being vortex mixed for 3 min, and then centrifuged for 10 min at 25 000 × g. Finally, the supernatant was injected into the UHPLC-MS/MS for extensive analysis.
Firstly, male Sprague-Dawley rats (200–220 g) in the animal laboratory at the Nanjing University of Chinese Medicine under the standard conditions (License number: SYXK(SU)-2007-0030) were fed. The rats were fed and provided with water for one week prior to the experimentation. Secondly, before the administration of the extracts, the rats were stopped from eating but were provided with water for 12 h prior to the test. […] Depending on the clinical dosage administered to the human body, the dosage of RAF and SAF comprised 12 g kg^−1 for oral administration. In addition, 500 μL blood samples (about 250 μL plasma) were collected in 1.5 mL heparinized polythene tubes at 0, 0.033, 0.083, 0.167, 0.33, 0.5, 0.75, 1, 2, 4, 6, 8, 12, 24, and 48 h via the postorbital venous plexus veins, after oral administration of the two extracts was observed. Finally, the collected plasma was centrifuged for 5 min at 25 000 × g and stored at −20 °C before the analysis. All the pharmacokinetic parameters were evaluated with the DAS 1.0 system (Medical College of Wannan, China). Furthermore, the maximum concentration of oral administration of AF (Cmax) and the time to reach Cmax (Tmax) were derived from the concentration–time profile. All the values were given as mean ± standard deviation.

Structure (SMILES) | AUC(0-inf) [1] [ng·h/mL] | AUC(0-t) [1] [ng·h/mL] | Tmax [1] [h] | half-life [1] [h] | MRT inf [2] [h] | AUC(0-inf) [3] [ng·h/mL] | AUC(0-t) [3] [ng·h/mL] | Tmax [3] [h] | half-life [3] [h] | MRT inf [4] [h] | C (max) [1] [ng/mL] | C (max) [3] [ng/mL] | Mean residence time (MRT(0–∞)) [1] [h] | t 1/2 [1] [h] | Mean residence time (MRT(0–∞)) [3] [h] | t 1/2 [3] [h] | shape of plasma concentration-time profile (oral RAF and SAF) | T max [1] [min] | T max [3] [min]
O=C(C=Cc1ccc(O)c(O)c1)OC1CC(O)(C(=O)O)CC(OC(=O)C=Cc2ccc(O)c(O)c2)C1O (stereo not shown) [Isochlorogenic acid A, isochlorogenic acid A] | 272 ± 169 | 219 ± 110 | 0.792 ± 0.09 | 6.7 ± 3.61 | 8.35 ± 2.91 | 180 ± 63.6 | 101 ± 73.1 | 0.1 ± 0.07 | 3.27 ± 1.26 | 7.97 ± 5.12 | 99.05 ± 37.81 | 135.71 ± 25.50 | – | – | – | – | – | – | –
O=C(C=Cc1ccc(O)c(O)c1)OC1C(O)CC(O)(C(=O)O)CC1O (stereo not shown) [Cryptochlorogenic acid, cryptochlorogenic acid] | 196 ± 59.1 | 152 ± 60.7 | 0.431 ± 0.07 | 12.6 ± 7.96 | 19.9 ± 9.37 | 280 ± 68 | 218 ± 80.3 | 0.103 ± 0.05 | 13.5 ± 7.98 | 16.9 ± 8.6 | 34.80 ± 25.06 | 116.16 ± 35.41 | – | – | – | – | – | – | –
O=C(C=Cc1ccc(O)c(O)c1)OC1CC(O)(C(=O)O)CC(O)C1OC(=O)C=Cc1ccc(O)c(O)c1 (stereo not shown) [Isochlorogenic acid C, isochlorogenic acid C] | 84.1 ± 46.3 | 71.5 ± 33.2 | 0.125 ± 0.05 | – | – | – | 79.5 ± 25.1 | 0.078 ± 0.03 | – | – | 39.89 ± 17.30 | 103.84 ± 47.62 | 15.89 ± 11.25 | 9.002 ± 5.89 | 8.736 ± 5.55 | 6.770 ± 4.30 | – | – | –
COc1ccc(C[C@H]2COC(=O)[C@@H]2Cc2ccc(O[C@@H]3O[C@H](CO)[C@@H](O)[C@H](O)[C@H]3O)c(OC)c2)cc1OC [Arctiin, arctiin] | 1070 ± 417 | 826 ± 216 | 0.152 ± 0.09 | 3 ± 1.42 | 5.33 ± 2.99 | 1970 ± 600 | 943 ± 228 | 0.072 ± 0.05 | 3.83 ± 1.86 | 8.98 ± 3.11 | 1019.3 ± 605.9 | 605.7 ± 389.5 | – | – | – | – | – | – | –
COc1cc(C[C@H]2C(=O)OC[C@@H]2Cc2ccc(OC)c(OC)c2)ccc1O [Arctigenin, arctigenin] | – | – | 9 ± 2.45 | 8.25 ± 1.09 | 14.9 ± 0.99 | – | – | 8.67 ± 3.72 | 9.95 ± 4.46 | 17.8 ± 6.08 | 706.9 ± 148.9 | 600.8 ± 158.3 | – | – | – | – | double-peak phenomenon | – | –
O=C(/C=C/c1ccc(O)c(O)c1)O[C@@H]1C[C@](O)(C(=O)O)C[C@@H](O)[C@H]1O [Chlorogenic acid, chlorogenic acid] | 1090 ± 588 | 1070 ± 594 | 0.875 ± 0.41 | – | 3.72 ± 0.6 | 937 ± 660 | 695 ± 307 | 0.111 ± 0.43 | 4.37 ± 0.32 | 5.09 ± 1.82 | 348.5 ± 161.3 | 303.7 ± 105.7 | – | 2.175 ± 0.28 | – | – | – | – | –
O=C(C=Cc1ccc(O)c(O)c1)OC1CC(O)(C(=O)O)CC(O)C1OC(=O)C=Cc1ccc(O)c(O)c1 (stereo not shown) [Isochlorogenic acid B, isochlorogenic acid B] | – | – | – | – | – | – | – | – | 24.3 ± 11.5 | – | 11.33 ± 8.68 | 43.22 ± 26.80 | 52.97 ± 27.74 | 35.68 ± 18.24 | 32.75 ± 15.17 | – | – | 7.02 ± 4.2 | 6.18 ± 3
